Source: patent publication US20110230472A1, “RING-FUSED AZOLE DERIVATIVE HAVING PI3K-INHIBITING ACTIVITY” (Shionogi & Co., Ltd., priority 2008, published 2011)

Each molecule was assayed against PI-3 kinase γ (Homo sapiens, UniProt P48736) (assay: PI3Kγ inhibitory activity, PI3-kinase HTRF assay (inhibition ratio)). Conditions: 0.5 h; PI3Kγ, compound at 10 μM.
Assay type: biochemical
Protocol: The PI3Kγ inhibitory activity of a compound was evaluated using PI3-kinase HTRF™ assay (Millipore) according to the following procedure:
To each well of a testing plate, 5 μL of a compound solution containing 10% DMSO (200 μmol/L or 40 μmol/L as the concentration of the compound), 5 μL of a substrate solution (40 μmol/L phosphatidylinositol (4,5)-bisphosphate, 20 mmol/L MgCl2, 10 mmol/L DTT), and 5 μL of a enzyme solution (80 μg/mL PI-3 kinase γ, 10 mmol/L MgCl2, 5 mmol/L DTT) were added, and then allowed to stand for 10 minutes.
Then, 5 μL of a reaction solution (40 μmol/L ATP, 10 mmol/L MgCl2, 5 mmol/L DTT) was added thereto. After reacting for 30 minutes at room temperature, 5 μL of a solution containing EDTA and biotinylated phosphatidylinositol (3,4,5)-triphosphate were added to quench the reaction.
5 μL of a detection reagent containing a europium-labeled anti-GST antibody, the GST-tagged PH domain, and allophycocyanin-labeled streptavidin was added thereto. After 18 hours, HTRF (excitation wavelength: 330 nm, measured wavelengths: 620 nm and 665 nm) was measured.
HTRF ratio was defined as the value obtained by dividing the amount of fluorescence obtained at the measured wavelength 665 nm by the amount of fluorescence obtained at 620 nm. The HTRF ratio in the absence of a compound was defined as 100% activity and the HTRF ratio in the absence of PI-3 kinase γ was defined as 0% activity to calculate an inhibition ratio which was defined as the PI3Kγ inhibitory activity of a compound at 50 μmol/L or 10 μmol/L.

Chain of PI-3 kinase γ (P48736 whole entry): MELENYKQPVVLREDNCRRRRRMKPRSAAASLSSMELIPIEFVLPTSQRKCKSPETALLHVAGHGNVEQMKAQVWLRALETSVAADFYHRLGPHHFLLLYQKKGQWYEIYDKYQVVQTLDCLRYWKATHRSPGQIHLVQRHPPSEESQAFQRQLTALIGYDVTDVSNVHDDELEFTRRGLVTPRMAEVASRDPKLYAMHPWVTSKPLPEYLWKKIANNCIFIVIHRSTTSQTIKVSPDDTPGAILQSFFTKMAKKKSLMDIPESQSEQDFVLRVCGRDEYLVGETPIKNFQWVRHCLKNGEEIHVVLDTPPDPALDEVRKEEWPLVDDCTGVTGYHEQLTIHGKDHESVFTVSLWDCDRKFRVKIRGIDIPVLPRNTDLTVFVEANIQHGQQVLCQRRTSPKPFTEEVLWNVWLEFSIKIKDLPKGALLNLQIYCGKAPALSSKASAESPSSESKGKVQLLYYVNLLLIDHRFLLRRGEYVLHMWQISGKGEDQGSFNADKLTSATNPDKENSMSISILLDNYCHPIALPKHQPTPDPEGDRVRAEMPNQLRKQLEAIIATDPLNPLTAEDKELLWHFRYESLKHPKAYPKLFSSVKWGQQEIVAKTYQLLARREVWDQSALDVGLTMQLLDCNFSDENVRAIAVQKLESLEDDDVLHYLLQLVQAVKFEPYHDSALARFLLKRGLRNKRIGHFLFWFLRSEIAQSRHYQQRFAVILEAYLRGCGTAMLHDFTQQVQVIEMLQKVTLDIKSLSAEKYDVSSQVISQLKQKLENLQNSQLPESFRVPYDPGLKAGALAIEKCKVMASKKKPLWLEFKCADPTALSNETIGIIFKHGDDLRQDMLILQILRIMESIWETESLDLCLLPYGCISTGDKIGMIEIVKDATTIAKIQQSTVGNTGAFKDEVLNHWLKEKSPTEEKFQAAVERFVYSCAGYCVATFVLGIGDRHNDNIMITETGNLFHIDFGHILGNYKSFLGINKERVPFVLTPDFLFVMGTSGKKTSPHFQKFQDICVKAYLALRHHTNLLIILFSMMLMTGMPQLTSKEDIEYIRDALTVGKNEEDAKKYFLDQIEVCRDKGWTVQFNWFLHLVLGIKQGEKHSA

Row | inhibition at 10 µM | Compound
1 | ≥ 95% | COc1cc(N2CCc3nc(NC(=O)NCCC(=O)N4CCC[C@H]4C(=O)OC(C)(C)C)sc3C2)nc(OC)n1 [Compound I-275]
2 | ≥ 95% | COc1cc(N2CCc3nc(NC(=O)NCCC(=O)N(C)c4ccccc4)sc3C2)nc(OC)n1 [Compound I-274]
3 | 86% | COc1cc(C(=O)Nc2nc3c(s2)CN(c2cc(OC)nc(OC)n2)CC3)on1 [Compound I-282]
4 | ≥ 95% | COc1cc(N2CCc3nc(NC(=O)NCC(=O)NCC(C)(C)C)sc3C2)nc(OC)n1 [Compound I-285]
5 | 82% | COc1cc(N2CCc3nc(NC(=O)NCCCN4CCCC4=O)sc3C2)nc(OC)n1 [Compound I-253]
6 | 88% | COc1cccc(CC(=O)Nc2nc3c(s2)CN(c2cc(OC)nc(OC)n2)CC3)c1 [Compound I-251]
7 | ≥ 95% | COc1cc(N2CCc3nc(NC(=O)N[C@@H](CC(=O)OC(C)(C)C)C(=O)O)sc3C2)nc(OC)n1 [Compound I-280]
8 | ≥ 95% | CC(=O)Nc1cc2n(n1)CCN2c1ccc2c(c1)CCC2=O [Compound I-283]
9 | 90% | COc1cc(N2CCc3nc(NC(=O)NCCCC(=O)OC(C)(C)C)sc3C2)nc(OC)n1 [Compound I-261]

Same assay, conditions: 0.5 h; PI3Kγ, compound at 50 μM

Row | inhibition at 50 µM | Compound
10 | 79% | CCOC(=O)c1sc(N2CCn3nc(NC(=O)NC)cc32)nc1C [Compound I-196]
11 | ≥ 95% | CNC(=O)Nc1cc2n(n1)CCN2c1cc(Br)cc(C(=O)NCCC(=O)OC(C)(C)C)c1 [Compound I-174]
12 | ≥ 95% | CNC(=O)Nc1cc2n(n1)CCN2c1cccc(O)c1 [Compound I-105]
13 | ≥ 95% | CNC(=O)Nc1nc2c(s1)CN(c1cc(OC)nc(N)n1)CC2 [Compound I-145]
14 | 84% | CNC(=O)Nc1cc2n(n1)CCN2c1cc(C#CCOC)cc(C(=O)N2CCOCC2)c1 [Compound I-233]
15 | 90% | CC(=O)Nc1cc2n(C(=O)c3ccccc3)ccn2n1 [Compound I-6]
16 | 84% | O=C(Nc1cc2n(n1)CCN2c1cccc(Cl)c1)C1CCCC1 [Compound I-237]
17 | ≥ 95% | CNC(=O)Nc1nc2c(s1)CN(c1cc(C(=O)OC)nc(Cl)n1)CC2 [Compound I-100]
18 | ≥ 95% | O=C(Nc1cc2n(n1)CCN2c1cccc(Cl)c1)c1cnco1 [Compound I-221]
19 | ≥ 95% | CNC(=O)Nc1nc2c(s1)CN(c1ccnc(Cl)n1)CC2 [Compound I-94]
20 | ≥ 95% | CNC(=O)Nc1nc2c(s1)CN(c1cc(C(N)=O)nc(Cl)n1)CC2 [Compound I-108]
21 | ≥ 95% | CC(=O)Nc1cc2n(C(=O)OC(C)(C)C)ccn2n1 [Compound I-7]
22 | 93% | CNC(=O)Nc1nc2c(s1)CN(c1nccc(C(F)(F)F)n1)CC2 [Compound I-95]
23 | ≥ 95% | CNC(=O)Nc1cc2n(n1)CCN2c1ccc(Cl)cc1 [Compound I-102]
24 | 73% | CNC(=O)Nc1cc2n(n1)CCN2C(=O)c1nc2ccccc2s1 [Compound I-40]
25 | 95% | CNC(=O)Nc1cc2n(n1)CCN2c1ccc2c(c1)CCNC2=O [Compound I-194]
26 | 76% | CC(C)(C)OC(=O)N1CCc2nc(NC(=O)Nc3cccc(Cl)c3)sc2C1 [Compound I-117]
27 | 76% | CNC(=O)Nc1nc2c(s1)CN(c1cc(N)nc(Cl)n1)CC2 [Compound I-122]
28 | 90% | O=C(Nc1cc2n(n1)CCN2c1cccc(Cl)c1)c1ccn[nH]1 [Compound I-246]
29 | ≥ 95% | CNC(=O)Nc1cc2n(n1)CCN(c1cncc(OC)c1)C2 [Compound I-65]
30 | ≥ 95% | CNC(=O)Nc1cc2n(n1)CCN2c1ccc(C(=O)OC)c(OC)c1 [Compound I-144]
31 | ≥ 95% | CNC(=O)Nc1cc2n(n1)CCN2c1cc(Br)cc(C(=O)O)c1 [Compound I-149]
32 | ≥ 95% | COc1ccc(Nc2cc3n(n2)CCN3C(=O)c2ccccc2)cc1 [Compound I-4]
33 | ≥ 95% | O=C(Nc1cc2n(n1)CCN2c1cccc(Cl)c1)c1ccccc1 [Compound I-219]
34 | 93% | CNC(=O)Nc1cc2n(n1)CCN2c1cc(/C=C/c2ccccc2)cc(C(=O)N2CCOCC2)c1 [Compound I-225]
35 | 91% | O=C(Nc1cc2n(n1)CCN2c1cccc(Cl)c1)c1cccc(O)c1 [Compound I-240]

Row | Compound | inhibition at 50 µM
36 | CNC(=O)Nc1cc2n(n1)CCN2C(=O)Oc1ccccc1 [Compound I-51] | 87%

Same assay, conditions: 0.5 h; compound at 10 μmol/L

Row | Compound | inhibition at 10 µM
37 | CN1CCc2cc(N3CCn4nc(NC(=O)Nc5cccs5)cc43)ccc2C1=O [Compound I-367] | 86%
38 | CN1CCc2cc(N3CCn4nc(NC(=O)NCc5ccccc5)cc43)ccc2C1=O [Compound I-370] | 84%
39 | CN1CCc2cc(N3CCn4nc(NC(=O)Cc5ccc(F)cc5)cc43)ccc2C1=O [Compound I-342] | 92%
40 | COc1cc(N2CCc3nc(NC(=O)Nc4cccs4)sc3C2)nc(OC)n1 [Compound I-296] | 88%
41 | COc1cccc(N2CCn3nc(NC(=O)c4ccc[nH]4)cc32)c1 [Compound I-320] | ≥ 95%
42 | CN1CCc2cc(N3CCn4nc(NC(=O)c5ccccc5)cc43)ccc2C1=O [Compound I-324] | 93%
43 | CN1CCc2cc(N3CCn4nc(NC(=O)OCc5ccccc5)cc43)ccc2C1=O [Compound I-314] | 88%
44 | CN1CCc2cc(N3CCn4nc(NC(=O)Nc5ccsc5)cc43)ccc2C1=O [Compound I-368] | 95%

The remaining lines, values ahead:

Row | inhibition at 10 µM | Compound
45 | ≥ 95% | CN1CCc2cc(N3CCn4nc(NC(=O)c5cccc(C(=O)OC(C)(C)C)c5)cc43)ccc2C1=O [Compound I-465]
46 | 91% | CN1CCc2cc(N3CCn4nc(NC(=O)c5ccccc5NC(=O)OC(C)(C)C)cc43)ccc2C1=O [Compound I-493]
47 | 92% | CN1CCc2cc(N3CCn4nc(NC(=O)NCCC(=O)OC(C)(C)C)cc43)ccc2C1=O [Compound I-530]
48 | ≥ 95% | CN1CCc2cc(N3CCn4nc(NC(=O)c5ccc(N)nc5)cc43)ccc2C1=O [Compound I-386]
49 | 93% | CN1CCc2cc(N3CCn4nc(NC(=O)c5csc(C(=O)O)c5)cc43)ccc2C1=O [Compound I-418]
50 | ≥ 95% | COCn1ccc(C(=O)Nc2cc3n(n2)CCN3c2ccc3c(c2)CCN(C)C3=O)n1 [Compound I-467]
51 | 88% | CC(C)NC(=O)c1ccccc1NC(=O)Nc1nc2c(s1)CN(C(=O)c1ccccc1)CC2 [Compound I-488]
52 | 90% | CN(C)C(=O)c1ccc(C(=O)Nc2cc3n(n2)CCN3c2ccc3c(c2)CCN(C)C3=O)s1 [Compound I-451]
53 | 84% | Cc1ccsc1C(=O)Nc1cc2n(n1)CCN2c1ccc2c(c1)CCN(C)C2=O [Compound I-444]
54 | ≥ 95% | CN1CCc2cc(N3CCn4nc(NC(=O)c5ccc(C(=O)NCC(=O)OC(C)(C)C)s5)cc43)ccc2C1=O [Compound I-411]
55 | 88% | CCOc1ccc(C(=O)Nc2nc3c(s2)CN(c2cc(OC)nc(OC)n2)CC3)o1 [Compound I-457]
56 | ≥ 95% | COc1ccc(C(=O)N2CCc3nc(NC(=O)Nc4ccccc4C(=O)NC(C)C)sc3C2)cc1 [Compound I-483]
57 | 81% | CCOC(=O)CNC(=O)Nc1cc2n(n1)CCN2c1ccc2c(c1)CCN(C)C2=O [Compound I-501]
58 | 83% | CN1CCc2cc(N3CCn4nc(NC(=O)c5cccc(NC(=O)OC(C)(C)C)c5)cc43)ccc2C1=O [Compound I-466]
59 | ≥ 95% | CC(C)N(C)C(=O)c1cc(C(=O)Nc2cc3n(n2)CCN3c2ccc3c(c2)CCN(C)C3=O)cs1 [Compound I-433]
60 | 90% | CC(C)NS(=O)(=O)c1cc(C(=O)Nc2cc3n(n2)CCN3c2ccc3c(c2)CCN(C)C3=O)cs1 [Compound I-428]
61 | 86% | CN1CCc2cc(N3CCn4nc(NC(=O)c5csc(C(=O)NC(C)(C)C)c5)cc43)ccc2C1=O [Compound I-438]
62 | 94% | CN1CCc2cc(N3CCn4nc(NC(=O)c5cnc(N6CCC[C@H]6C(=O)OC(C)(C)C)s5)cc43)ccc2C1=O [Compound I-525]
63 | ≥ 95% | CN1CCc2cc(N3CCn4nc(NC(=O)c5csc(C(=O)NCC(C)(C)C)c5)cc43)ccc2C1=O [Compound I-439]
64 | ≥ 95% | CCCNC(=O)Cc1cc(C(=O)Nc2cc3n(n2)CCN3c2ccc3c(c2)CCN(C)C3=O)cs1 [Compound I-496]
65 | ≥ 95% | CNS(=O)(=O)c1cc(C(=O)Nc2cc3n(n2)CCN3c2ccc3c(c2)CCN(C)C3=O)cs1 [Compound I-437]

Same assay, conditions: 0.5 h; compound at 50 μmol/L

Row | inhibition at 50 µM | Compound
66 | ≥ 95% | CN1CCc2cc(N3CCn4nc(NC(=O)CC5CCN(C(=O)OC(C)(C)C)C5)cc43)ccc2C1=O (stereo not drawn) [Compound I-351]
67 | 81% | CN1CCc2cc(N3CCn4nc(NC(=O)c5ccc(Br)s5)cc43)ccc2C1=O [Compound I-365]
68 | ≥ 95% | CN1CCc2cc(N3CCn4nc(NC(=O)NC5CCCC5)cc43)ccc2C1=O [Compound I-369]
69 | 81% | CNC(=O)Nc1nc2c(s1)CN(c1cc(OCC3CC3)nc(Cl)n1)CC2 [Compound I-325]
